Measured values reported in ChEMBL document CHEMBL4014283, “Structural insights of SmKDAC8 inhibitors: Targeting Schistosoma epigenetics through a combined structure-based 3D QSAR, in vitro and synthesis strategy” (Bioorg Med Chem, 2017).

Each compound was assayed against T1, Histone deacetylase 8 (Schistosoma mansoni) (UniProt A5H660) (assay: Inhibition of Schistosoma mansoni KDAC8 at 30 uM using (FAM)-labeled peptide as substrate after 60 mins by microfluidic assay).
T1 sequence (whole entry): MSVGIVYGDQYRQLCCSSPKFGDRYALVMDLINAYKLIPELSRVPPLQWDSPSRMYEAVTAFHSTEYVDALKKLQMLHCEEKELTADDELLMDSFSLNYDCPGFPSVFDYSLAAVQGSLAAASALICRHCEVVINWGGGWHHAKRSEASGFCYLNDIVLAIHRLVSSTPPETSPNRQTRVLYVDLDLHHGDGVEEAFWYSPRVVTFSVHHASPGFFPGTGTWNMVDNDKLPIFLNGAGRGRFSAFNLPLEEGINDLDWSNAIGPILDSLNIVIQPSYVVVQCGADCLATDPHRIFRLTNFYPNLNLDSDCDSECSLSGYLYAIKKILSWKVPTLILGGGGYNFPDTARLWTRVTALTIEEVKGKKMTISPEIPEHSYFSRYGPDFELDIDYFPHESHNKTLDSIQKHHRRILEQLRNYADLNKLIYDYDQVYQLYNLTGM

`CC(C)[C@@H]1NC(=O)[C@@H]2CCCN2C(=O)[C@H]2CCCN2C(=O)C[C@H](C(=O)O)NC1=O` and `CC(C)[C@@H]1NC(=O)[C@H]2CCCN2C(=O)[C@@H]2CCCN2C(=O)C[C@H](C(=O)O)NC1=O` are the same in inhibition: 0% for the first, 0% for the second.

`CC(C)[C@@H]1NC(=O)[C@H]2CCCN2C(=O)[C@@H]2CCCN2C(=O)C[C@@H](C(=O)NCCSSCCNC(=O)[C@@H]2CC(=O)N3CCC[C@H]3C(=O)N3CCC[C@@H]3C(=O)N[C@@H](C(C)C)C(=O)N2)NC1=O` and `CC(C)[C@@H]1NC(=O)[C@@H]2CCCN2C(=O)[C@H]2CCCN2C(=O)C[C@@H](C(=O)NCCSSCCNC(=O)[C@@H]2CC(=O)N3CCC[C@@H]3C(=O)N3CCC[C@H]3C(=O)N[C@@H](C(C)C)C(=O)N2)NC1=O` are the same in inhibition: 0% for the first, 0% for the second.

`CC(C)[C@@H]1NC(=O)[C@H]2CCCN2C(=O)[C@@H]2CCCN2C(=O)C[C@H](C(=O)NCCCSCCN)NC1=O` and `CC(C)[C@@H]1NC(=O)[C@H]2CCCN2C(=O)[C@@H]2CCCN2C(=O)C[C@@H](C(=O)NCCCSCCN)NC1=O` are the same in inhibition: 0% for the first, 0% for the second.

`CC(C)[C@@H]1NC(=O)[C@H]2CCCN2C(=O)[C@@H]2CCCN2C(=O)C[C@@H](C(=O)NCCCO)NC1=O` and `CC(C)[C@@H]1NC(=O)[C@H]2CCCN2C(=O)[C@@H]2CCCN2C(=O)C[C@H](C(=O)NCCCO)NC1=O` are the same in inhibition: 0% for the first, 0% for the second.

`CSCCCNC(=O)[C@H]1CC(=O)N2CCC[C@@H]2C(=O)N2CCC[C@H]2C(=O)N[C@@H](C(C)C)C(=O)N1` and `CSCCCNC(=O)[C@@H]1CC(=O)N2CCC[C@@H]2C(=O)N2CCC[C@H]2C(=O)N[C@@H](C(C)C)C(=O)N1` are the same in inhibition: 0% for the first, 0% for the second.

Compared with `CC(C)[C@@H]1NC(=O)[C@@H]2CCCN2C(=O)[C@H]2CCCN2C(=O)C[C@H](C(=O)NCCCSSCCCNC(=O)[C@H]2CC(=O)N3CCC[C@@H]3C(=O)N3CCC[C@H]3C(=O)N[C@@H](C(C)C)C(=O)N2)NC1=O`, `CC(C)[C@@H]1NC(=O)[C@H]2CCCN2C(=O)[C@@H]2CCCN2C(=O)C[C@H](C(=O)NCCCSSCCCNC(=O)[C@H]2CC(=O)N3CCC[C@H]3C(=O)N3CCC[C@@H]3C(=O)N[C@@H](C(C)C)C(=O)N2)NC1=O` is higher in inhibition: 0% for the first, 3.36% for the second.

`O=C(O)CCCCN1C(=O)[C@H](CCC(=O)NC(c2ccccc2)(c2ccccc2)c2ccccc2)N=C(c2ccccc2)c2ccccc21` and `CC(C)[C@@H]1NC(=O)[C@@H]2CCCN2C(=O)[C@H]2CCCN2C(=O)C[C@@H](C(=O)NCCSSCCNP(=O)(Oc2ccccc2)Oc2ccccc2)NC1=O` are the same in inhibition: 0% for the first, 0% for the second.

`CC(C)[C@@H]1NC(=O)[C@H]2CCCN2C(=O)[C@@H]2CCCN2C(=O)C[C@H](C(=O)NCCCC(=O)O)NC1=O` and `CC(C)[C@@H]1NC(=O)[C@H]2CCCN2C(=O)[C@@H]2CCCN2C(=O)C[C@@H](C(=O)NCCCC(=O)O)NC1=O` are the same in inhibition: 0% for the first, 0% for the second.

`CC(C)[C@@H]1NC(=O)[C@H]2CCCN2C(=O)[C@@H]2CCCN2C(=O)C[C@H](C(=O)NCCCS(C)(=O)=O)NC1=O` and `CC(C)[C@@H]1NC(=O)[C@H]2CCCN2C(=O)[C@@H]2CCCN2C(=O)C[C@@H](C(=O)NCCCS(C)(=O)=O)NC1=O` are the same in inhibition: 0% for the first, 0% for the second.

Compared with `CC(C)[C@@H]1NC(=O)[C@@H]2CCCN2C(=O)[C@H]2CCCN2C(=O)C[C@@H](C(=O)NCCCC(=O)NO)NC1=O`, `CC(C)[C@@H]1NC(=O)[C@@H]2CCCN2C(=O)[C@H]2CCCN2C(=O)C[C@H](C(=O)NCCCC(=O)NO)NC1=O` is higher in inhibition: 21.2% for the first, 25.8% for the second.

`CC(C)[C@@H]1NC(=O)[C@@H]2CCCN2C(=O)[C@H]2CCCN2C(=O)C[C@@H](C(=O)NCCS)NC1=O` and `CC(C)[C@@H]1NC(=O)[C@H]2CCCN2C(=O)[C@@H]2CCCN2C(=O)C[C@@H](C(=O)NCCS)NC1=O` are the same in inhibition: 0% for the first, 0% for the second.

Compared with `CC(C)[C@@H]1NC(=O)[C@@H]2CCCN2C(=O)[C@H]2CCCN2C(=O)C[C@@H](C(=O)NCCCS)NC1=O`, `CC(C)[C@@H]1NC(=O)[C@@H]2CCCN2C(=O)[C@H]2CCCN2C(=O)C[C@H](C(=O)NCCCS)NC1=O` is higher in inhibition: 0.84% for the first, 14.6% for the second.

`CC(C)[C@@H]1NC(=O)[C@@H]2CCCN2C(=O)[C@H]2CCCN2C(=O)C[C@H](C(=O)NCCSSCCNC(=O)[C@H]2CC(=O)N3CCC[C@@H]3C(=O)N3CCC[C@H]3C(=O)N[C@@H](C(C)C)C(=O)N2)NC1=O` and `CC(C)[C@@H]1NC(=O)[C@H]2CCCN2C(=O)[C@@H]2CCCN2C(=O)C[C@H](C(=O)NCCSSCCNC(=O)[C@H]2CC(=O)N3CCC[C@H]3C(=O)N3CCC[C@@H]3C(=O)N[C@@H](C(C)C)C(=O)N2)NC1=O` are the same in inhibition: 0% for the first, 0% for the second.

`CC(C)[C@@H]1NC(=O)[C@@H]2CCCN2C(=O)[C@H]2CCCN2C(=O)C[C@H](C(=O)NCCC[S+](C)[O-])NC1=O` (some centres undefined) and `CC(C)[C@@H]1NC(=O)[C@@H]2CCCN2C(=O)[C@H]2CCCN2C(=O)C[C@@H](C(=O)NCCC[S+](C)[O-])NC1=O` (some centres undefined) are the same in inhibition: 0% for the first, 0% for the second.

`CC(C)[C@@H]1NC(=O)[C@@H]2CCCN2C(=O)[C@H]2CCCN2C(=O)C[C@H](C(=O)NCCCN)NC1=O` and `CC(C)[C@@H]1NC(=O)[C@@H]2CCCN2C(=O)[C@H]2CCCN2C(=O)C[C@@H](C(=O)NCCCN)NC1=O` are the same in inhibition: 0% for the first, 0% for the second.

`CC(C)[C@@H]1NC(=O)[C@@H]2CCCN2C(=O)[C@H]2CCCN2C(=O)C[C@H](C(=O)NCCCO)NC1=O` and `CC(C)[C@@H]1NC(=O)[C@@H]2CCCN2C(=O)[C@H]2CCCN2C(=O)C[C@@H](C(=O)NCCCO)NC1=O` are the same in inhibition: 0% for the first, 0% for the second.

Going from `COC(=O)CCCNC(=O)[C@H]1CC(=O)N2CCC[C@@H]2C(=O)N2CCC[C@H]2C(=O)N[C@@H](C(C)C)C(=O)N1` to `COC(=O)CCCNC(=O)[C@H]1CC(=O)N2CCC[C@H]2C(=O)N2CCC[C@@H]2C(=O)N[C@@H](C(C)C)C(=O)N1`, the inhibition rises from 0% to 1.47%.

First: CC(C)[C@@H]1NC(=O)[C@H]2CCCN2C(=O)[C@@H]2CCCN2C(=O)C[C@@H](C(=O)NCCCS)NC1=O
Second: CC(C)[C@@H]1NC(=O)[C@H]2CCCN2C(=O)[C@@H]2CCCN2C(=O)C[C@H](C(=O)NCCCS)NC1=O
The inhibition of the first is lower: 1.45% for the first, 3.18% for the second.

First: CC(C)[C@@H]1NC(=O)[C@H]2CCCN2C(=O)[C@@H]2CCCN2C(=O)C[C@H](C(=O)NCCS)NC1=O
Second: CC(C)[C@@H]1NC(=O)[C@@H]2CCCN2C(=O)[C@H]2CCCN2C(=O)C[C@H](C(=O)NCCS)NC1=O
The inhibition of the first is lower: 0% for the first, 8.3% for the second.

`CC(C)[C@@H]1NC(=O)[C@@H]2CCCN2C(=O)[C@H]2CCCN2C(=O)C[C@@H](C(=O)NCCCC(=O)O)NC1=O` and `CC(C)[C@@H]1NC(=O)[C@@H]2CCCN2C(=O)[C@H]2CCCN2C(=O)C[C@H](C(=O)NCCCC(=O)O)NC1=O` are the same in inhibition: 0% for the first, 0% for the second.

`COC(=O)CCCNC(=O)[C@@H]1CC(=O)N2CCC[C@@H]2C(=O)N2CCC[C@H]2C(=O)N[C@@H](C(C)C)C(=O)N1` and `COC(=O)CCCNC(=O)[C@@H]1CC(=O)N2CCC[C@H]2C(=O)N2CCC[C@@H]2C(=O)N[C@@H](C(C)C)C(=O)N1` are the same in inhibition: 0% for the first, 0% for the second.

`CC(C)[C@@H]1NC(=O)[C@@H]2CCCN2C(=O)[C@H]2CCCN2C(=O)C[C@@H](C(=O)OCc2ccccc2)NC1=O` and `CC(C)[C@@H]1NC(=O)[C@@H]2CCCN2C(=O)[C@H]2CCCN2C(=O)C[C@H](C(=O)OCc2ccccc2)NC1=O` are the same in inhibition: 0% for the first, 0% for the second.

`CC(C)[C@@H]1NC(=O)[C@H]2CCCN2C(=O)[C@@H]2CCCN2C(=O)C[C@@H](C(=O)NCCCSSCCCNC(=O)[C@@H]2CC(=O)N3CCC[C@H]3C(=O)N3CCC[C@@H]3C(=O)N[C@@H](C(C)C)C(=O)N2)NC1=O` and `CC(C)[C@@H]1NC(=O)[C@@H]2CCCN2C(=O)[C@H]2CCCN2C(=O)C[C@@H](C(=O)NCCCSSCCCNC(=O)[C@@H]2CC(=O)N3CCC[C@@H]3C(=O)N3CCC[C@H]3C(=O)N[C@@H](C(C)C)C(=O)N2)NC1=O` are the same in inhibition: 0% for the first, 0% for the second.

`CC(C)[C@@H]1NC(=O)[C@H]2CCCN2C(=O)[C@@H]2CCCN2C(=O)C[C@@H](C(=O)NCCC[S+](C)[O-])NC1=O` (some centres undefined) and `CC(C)[C@@H]1NC(=O)[C@H]2CCCN2C(=O)[C@@H]2CCCN2C(=O)C[C@H](C(=O)NCCC[S+](C)[O-])NC1=O` (some centres undefined) are the same in inhibition: 0% for the first, 0% for the second.

First: CC(C)[C@@H]1NC(=O)[C@@H]2CCCN2C(=O)[C@H]2CCCN2C(=O)C[C@H](C(=O)NCCSSCCNP(=O)(Oc2ccccc2)Oc2ccccc2)NC1=O
Second: CC(C)[C@@H]1NC(=O)[C@@H]2CCCN2C(=O)[C@H]2CCCN2C(=O)C[C@@H](C(=O)NCCSSCCN)NC1=O
The inhibition of the first is higher: 3% for the first, 0% for the second.

`CC(C)[C@@H]1NC(=O)[C@H]2CCCN2C(=O)[C@@H]2CCCN2C(=O)C[C@H](C(=O)Cc2ccccc2)NC1=O` and `CC(C)[C@@H]1NC(=O)[C@H]2CCCN2C(=O)[C@@H]2CCCN2C(=O)C[C@@H](C(=O)OCc2ccccc2)NC1=O` are the same in inhibition: 0% for the first, 0% for the second.

`CSCCCNC(=O)[C@@H]1CC(=O)N2CCC[C@H]2C(=O)N2CCC[C@@H]2C(=O)N[C@@H](C(C)C)C(=O)N1` and `CSCCCNC(=O)[C@H]1CC(=O)N2CCC[C@H]2C(=O)N2CCC[C@@H]2C(=O)N[C@@H](C(C)C)C(=O)N1` are the same in inhibition: 0% for the first, 0% for the second.

`CC(C)[C@@H]1NC(=O)[C@@H]2CCCN2C(=O)[C@H]2CCCN2C(=O)C[C@@H](C(=O)O)NC1=O` and `CC(C)[C@@H]1NC(=O)[C@H]2CCCN2C(=O)[C@@H]2CCCN2C(=O)C[C@@H](C(=O)O)NC1=O` are the same in inhibition: 0% for the first, 0% for the second.

`CC(C)[C@@H]1NC(=O)[C@@H]2CCCN2C(=O)[C@H]2CCCN2C(=O)C[C@@H](C(=O)NCCCS(C)(=O)=O)NC1=O` and `CC(C)[C@@H]1NC(=O)[C@@H]2CCCN2C(=O)[C@H]2CCCN2C(=O)C[C@H](C(=O)NCCCS(C)(=O)=O)NC1=O` are the same in inhibition: 0% for the first, 0% for the second.

`CC(C)[C@@H]1NC(=O)[C@@H]2CCCN2C(=O)[C@H]2CCCN2C(=O)C[C@H](C(=O)NCCSSCCN)NC1=O` showed an inhibition of 0%.
